Values of other authors, collected in US20240180834A1, “DEVELOPMENT OF COVID-19 VACCINE USING A DUAL TLR LIGAND LIPOSOME ADJUVANT” (priority 2021, published 2024).

Settings: earlier work

CCCCCCCCCCCCCCCCCC(=O)NCCCCOn1c(CCCC)nc2c(N)nc3ccccc3c21 [3M-052, N-[4-(4-amino-2-butylimidazo[4,5-c]quinolin-1-yl)oxybutyl]octadecanamide]
type of immune response elicited by the TLR agonist in the nanoliposome adjuvant: elicited a robust systemic Th1 response
